Source: US11324752B2, “Imeglimin for preventing and/or treating hepatocellular carcinoma” (ERICARE, priority 2017, dated 2022)
“Also recorded” adds a separate entry of the source. Structures can show the parent of a compound that is named as a salt.

Legend:
HepG2 [1] = assay: MTS Promega cell proliferation assay, HepG2; assay type: cell-based, human; settings: period of 6 days
Protocol: (§1) In vitro anti-proliferative effect of imeglimin compared to that of metformin in 2 models of human hepatocellular carcinoma (HCC). Determination of IC50 (median inhibitory concentration) by the MTS Promega™ cell proliferation assay (CellTiter 96™ AQueous Nonradioactive Cell Proliferation Assay Kit).
(§2) Different mM concentrations (0, 0.1, 0.25, 0.5, 1.0, 2.5, 5.0, 7.5, 10, 25, 50, 100) of imeglimin and metformin were tested in vitro on two human CHC cell lines, HepG2 and HuH7, over a period of 6 days.

HuH7 [2] = assay: MTS Promega cell proliferation assay, HuH7; assay type: cell-based, human
Protocol: as §1, §2

HepG2 line = settings: for growth in volume of grafted tumors compared to placebo control group: FIG. 1
Protocol: In vivo anti-tumor activity of imeglimin compared to that of metformin, alone or in combination with sorafenib, on subcutaneous xenograft models of the CHC HepG2 line in 6 week old female mice with a BALB/c nude genetic background (Harlan).
Two million cells of the HepG2 line are injected into the left side of each mouse in a volume of 100 μl (50 μl PBS-50 μl matrigel). Mice developing a palpable tumor are randomized into 7 groups of
treatment of 14 mice according to the following design: placebo, imeglimin 75 mg/kg/day, imeglimin 150 mg/kg/day, metformin 75 mg/kg/day, sorafenib 40 mg/kg/day, imeglimin 75 mg/kg/day+sorafenib 40 mg/kg/day, metformin 75 mg/kg/day+sorafenib 40 mg/kg/day.
Metformin and imeglimin are administered in drinking water, sorafenib is administered by oral gavage. Treatment begins on the day of randomization.
The treatments were administered for 63 days. The evolution curves of the tumor volumes, as well as those of the weight of the animals, were analyzed during this period. The appearance of tumors and organs has been the subject of a macroscopic anatomic-pathological analysis.

[3] = STZ diabetic rat; 35 days; 50 and 100 mg/kg/day; cited from earlier work
[4] = seven Phase 1 studies, 216 subjects; cited from earlier work
[5] = seven Phase 2 studies, 611 patients; cited from earlier work
[6] = cited from earlier work
mitochondrial I complex = settings: cited from earlier work
HepG2 [7] = settings: in vitro; cited from earlier work
HuH7 [8] = settings: in vitro; cited from earlier work
human liver tumor cells = settings: immunocompromised mice; cited from earlier work
[9] = in particular hepatocellular carcinoma; cited from earlier work
hepatocellular carcinoma = settings: cited from earlier work
[10] = 1500 mg twice daily, similar to 850 mg of metformin twice daily

For C[C@H]1N=C(N(C)C)N=C(N)N1 [imeglimin, (6R)-(+)-4-dimethylamino-2-imino-6-methyl-1,2,5,6-tetrahydro-1,3,5-triazine hydrochloride], the “change of inhibitory effect with time” value (HepG2 [1]) was “increases with time”, the “effect on HuH7 line compared with HepG2 line” value (HuH7 [2]) was “much more marked” and the “change of inhibitory effect with time” value (HuH7 [2]; period of 6 days) was “increases with time”. For the same compound, the “dose effect on tumor growth” value (HepG2 line; 75 mg/kg/day to 150 mg/kg/day, hydrochloride) was “dose-dependent inhibitory effect on tumor growth; also recorded: increases with the doubling of doses”, the “mean weight of the animals” value (HepG2 line; 63 days of treatment) was “did not change” and the toxicity of treatment (HepG2 line; 63 days of treatment) was “did not prove to be toxic”. The “growth in volume of grafted tumors compared to placebo control group” value (from here on “growth … compared to placebo control group”) (HepG2 line; 63 days of treatment) was “slow down the growth in volume of grafted tumors”, the “effect on tumor volume compared with metformin” value (HepG2 line; imeglimin 150 mg/kg/day vs metformin 75 mg/kg/day (equipotent doses), hydrochloride) was “higher than metformin; also recorded: significantly greater than that of metformin” and the “effect on tumor volume compared with sorafenib” value (HepG2 line; imeglimin 150 mg/kg/day vs sorafenib 40 mg/kg/day, hydrochloride) was “not significantly different from sorafenib; also recorded: does not have a significantly different effect”. The HbA1c [3] was “significantly decreased”, the fasting blood glucose [3] was “significantly decreased” and the “administration safety and tolerance” value [4] was “excellent administration safety and tolerance”. For the same compound, the “tolerance and safety of use” value [5] was “excellent tolerance and safety of use similar to those of the placebo”, the fasting glucose levels [6, 10] was “improves” and the “hemoglobin A1c” value [6, 10] was “improves”. The “tolerance profile compared with metformin” value ([6]; diabetic patients) was “greater than that of metformin” and the “inhibition of mitochondrial I complex” value (mitochondrial I complex) was “does not inhibit”.

For CN(C)C(=N)N=C(N)N [metformin], the “growth … compared to placebo control group” value (HepG2 line; 63 days of treatment) is listed as “slow down the growth in volume of grafted tumors”, the “cell growth inhibitory activity” value (HepG2 [7]) is listed as “has cell growth inhibitory activity” and the “cell growth inhibitory activity” value (HuH7 [8]) is listed as “has cell growth inhibitory activity”. For the same compound, the anti-cancer activity (human liver tumor cells) was “exhibits anti-cancer activity” and the “cancers in treated patients with type 2 diabetes versus other anti-diabetic drugs” value [9] was “fewer cancers”.

In the case of CNC(=O)c1cc(Oc2ccc(NC(=O)Nc3ccc(Cl)c(C(F)(F)F)c3)cc2)ccn1 [sorafenib, reference compound], the “growth … compared to placebo control group” value (HepG2 line; 63 days of treatment) is listed as “slow down the growth in volume of grafted tumors”, the “anti-angiogenic effect, observation at sacrifice” value (HepG2 line; sorafenib 40 mg/kg/day alone or with imeglimin 75 mg/kg/day) is listed as “exerts its anti-angiogenic properties” and the median survival time (hepatocellular carcinoma; patients with advanced hepatocellular carcinoma) is listed as 10.7 months. The “most important side effects” value (hepatocellular carcinoma; sorafenib group) was “Diarrhea, weight loss, hand-foot syndrome and hypophosphatemia”.
